{"source": "paper PMC7083851", "about": "“Extended pharmacodynamic responses observed upon PROTAC-mediated degradation of RIPK2” (Communications Biology, 2020)", "key": {"[1]": {"system": "L18-MDP-induced TNFα release", "assay": "L18-MDP-induced cytokine release (TNFα, IL1β, IL-6, IL-8, IL-10) in human PBMCs", "assay_type": "cell-based", "details": "L18-MDP-induced TNFα release, human PBMCs, 6 h", "description": "PBMCs were isolated from leukodepletion filter from platelet aphaeresis supplied by National Health System Blood and Transplant—NHSBT Apheresed at NHBST.\nBefore treatment with compound or vehicle, THP1 cells, human and rat PBMCs were counted using Vi-Cell cell counter (Invitrogen) and adjusted to a final cell density of […] using complete growth medium. Cells or whole blood were treated with vehicle (0.1% DMSO) or fixed concentrations of compound up to 1 μM in half log unit increments and incubated for the time period indicated in the figure.\nWhere the assessment of cytokines was performed, L18-MDP was added to the cell culture media (1 μg/ml) or to the rat blood samples (100 ng/ml) and samples were incubated for up to 4 h. […] Samples were them spun down at 1000 g and the cell culture supernatant, plasma or serum were collected for cytokines assessment, while cell pellets were used for RIPK2 and/or cIAP1, cIAP2, and XIAP levels analysis via immunoblotting.\n(§1) Cytokine measurement assay: Cytokine levels were measured in rat plasma or rat PBMCs cell culture supernatants using rat V-Plex TNFα, in human plasma or human PBMCs cell culture supernatants with either TNFα tissue culture or 7-plex kit. Rat serum and tissues samples from the in vivo L18-MDP acute inflammation model were analyzed using the rat TNFα, Il-6 and IL-8 U-Plex kits. All kits provided by Meso Scale Discovery (MSD). Levels of cytokines spontaneously released from human colon biopsies cell culture supernatants were measured using Human IL-1 beta/IL-1F2 DuoSet ELISA (Bio-techne), Human IL-6 ELISA (Immunotools) and Human TNF-alpha DuoSet ELISA (Bio-techne). All samples were processed accordingly to the manufacturer’s instructions. The MSD plates were analyzed using the MSD sector imager 6000 plate reader and cytokines concentration (pg/ml) was obtained by using the MSD DISCOVERY WORKBENCH software version 4.0.12.1\nIn vitro experimental data were analyzed using a 4-parameter logistic equation in GraphPad Prism 5.0.4. to generate an estimate of the half-maximal concentration and maximal degradation, DC50 and Dmax value respectively, for concentration-degradation relationships. Cytokine levels were analyzed in a similar manner to yield IC50 and Imax values. […] Where analysis to a sigmoidal relationship was not possible, the data points are shown as mean ± s.e.m."}, "RIPK2": {"system": "RIPK2", "assay": "In vivo RIPK2 degradation in rat (PBMCs isolated from blood, Western blot)", "description": "(§2) Rat PK/PD studies: On arrival, all rats were housed in a plastic solid bottom cage in groups of 2–3 with access to food and water ad libitum and under a 12 h light–dark cycle. Male CD or Wistar Han rats (7–9 weeks old, Charles River UK Ltd.) were randomly allocated to treatment groups upon arrival. Female CD rats (7–8 weeks old on arrival, Charles River Ltd.) were placed into groups using a randomization schedule based on body weight prior to the study start. All animals were acclimatized for a minimum of one week prior to the experiment commencing.\nSubcutaneous PROTAC solution formulations were prepared on the day of dosing as outlined below and filtered through a 0.22 µm Millex PVDF filter (Millipore) prior to PROTAC administration. PROTAC 4 was dissolved in saline with the pH adjusted to 5.0 with sodium hydroxide (1 M). […].\n(§3) Ex vivo stimulation of rat blood with L18-MDP for PD: PPD blood samples taken prior to PROTAC administration or at fixed timepoints post PROTAC administration through the course of the study, were treated ex vivo with 100 ng/mL L18-MDP (Invivogen) or vehicle (0.1% DMSO) and incubated for 4 h. Following centrifugation, plasma was collected for cytokines analysis as detailed in cytokines assay section. Additionally, RIPK2 levels were determined in PBMCs isolated from blood and where collected, in sampled colon tissue as described in the text.\nBlood was mixed with optiPREP (Sigma) and following centrifugation at 1300 × g the PBMCs layer was collected. For in vivo studies, RIPK2 levels were determined immediately via immunoblotting, whereas for in vitro studies PBMCs were treated as detailed in the in vitro treatment section.\n(§4) Statistics and reproducibility: All data were represented as percentage of the control sample: DMSO treated cells for the in vitro assays and the pre-dose or vehicle sample for the in vivo experiments.\nFor in vivo studies, RIPK2:tubulin ratios and cytokine levels from each individual experiment were analysed either using a One-way ANOVA with Dunnet’s post-test or a two way ANOVA using GraphPad Prism 5.0.4 to determine statistical significance with 95% confidence levels."}, "[2]": {"system": "L18-MDP-stimulated TNFα release", "assay": "TNFα after ex vivo L18-MDP stimulation of blood from dosed rats", "assay_type": "in vivo, rat", "details": "for TNFa level after ex vivo L18-MDP stimulation vs pre-dose, individual rat: 20 mg/kg SC single dose, 7-day study", "description": "as §2, with “Male” for “Rat PK/PD studies: On arrival, all rats were housed in a plastic solid bottom cage in groups of 2–3 with access to food and water ad libitum and under a 12 h light–dark cycle. Male”\nSubcutaneous PROTAC solution formulations were prepared on the day of dosing as outlined below and filtered through a 0.22 µm Millex PVDF filter (Millipore) prior to PROTAC administration. PROTAC 4 was dissolved in saline with the pH adjusted to 5.0 with sodium hydroxide (1 M).\nas §3, §1, §4"}}, "note": "Values joined by “and” are separate entries in the source; they are usually repeats but may differ in a detail not shown here. Equal values may be shown once."}
{"molecule": "CN[C@@H](C)C(=O)N[C@H](C(=O)N1CCC[C@H]1c1nc(C(=O)c2ccc(F)cc2)cs1)C1CCN(C(=O)c2cnc(N3CCN(CCOc4cc5ncnc(Nc6n[nH]c(C)c6C)c5cc4S(=O)(=O)C(C)(C)C)CC3)nc2)CC1", "note": "[PROTAC 4]", "values": [{"measurement": "hPBMC MDP pIC50 ± SEM, 6 h (n = 3)", "setting": "[1]", "value": "8.0 ± 0.5"}, {"measurement": "RIPK2 level vs pre-dose, individual rat", "setting": "RIPK2; 1 mg/kg SC, 14-day study, 8 h", "value": "71.55% and 45.26% and 58.63% and 60.59% and 55.33%"}, {"measurement": "RIPK2 level vs pre-dose, individual rat", "setting": "RIPK2; 1 mg/kg SC, 14-day study, 72 h", "value": "64.81% and 59.31% and 60.99% and 66.83% and 64.49%"}, {"measurement": "RIPK2 level vs pre-dose, individual rat", "setting": "RIPK2; 1 mg/kg SC, 14-day study, 240 h", "value": "112.79% and 70.63% and 104.75% and 126.83% and 102.52%"}, {"measurement": "RIPK2 level vs pre-dose, individual rat", "setting": "RIPK2; 5 mg/kg SC, 14-day study, 8 h", "value": "41.85% and 45.44% and 41.77% and 41.32% and 53.21%"}, {"measurement": "RIPK2 level vs pre-dose, individual rat", "setting": "RIPK2; 5 mg/kg SC, 14-day study, 72 h", "value": "34.61% and 30.18% and 38.68% and 37.78% and 36.11%"}, {"measurement": "RIPK2 level vs pre-dose, individual rat", "setting": "RIPK2; 5 mg/kg SC, 14-day study, 240 h", "value": "87.11% and 99.39% and 92.18% and 103.23% and 99.62%"}, {"measurement": "RIPK2 level vs pre-dose, individual rat", "setting": "RIPK2; 20 mg/kg SC single dose, 7-day study, 8 h", "value": "28.87% and 26.27% and 38.47% and 28.32% and 30.61%"}, {"measurement": "RIPK2 level vs pre-dose, individual rat", "setting": "RIPK2; 20 mg/kg SC single dose, 7-day study, 24 h", "value": "18.69% and 14.21% and 28.44% and 16.94% and 23.48%"}, {"measurement": "RIPK2 level vs pre-dose, individual rat", "setting": "RIPK2; 20 mg/kg SC single dose, 7-day study, 72 h", "value": "6.86% and 4.61% and 6.88% and 8.62% and 8.55%"}, {"measurement": "RIPK2 level vs pre-dose, individual rat", "setting": "RIPK2; 20 mg/kg SC single dose, 7-day study, 168 h", "value": "12.52% and 6.26% and 20.35% and 12.51% and 16.81%"}, {"measurement": "RIPK2 level vs pre-dose, individual rat", "setting": "RIPK2; 20 mg/kg SC, 14-day study, 8 h", "value": "37.50% and 45.03% and 47.72% and 58.85% and 77.11%"}, {"measurement": "RIPK2 level vs pre-dose, individual rat", "setting": "RIPK2; 20 mg/kg SC, 14-day study, 72 h", "value": "13.52% and 12.63% and 25.66% and 9.20% and 12.50%"}, {"measurement": "RIPK2 level vs pre-dose, individual rat", "setting": "RIPK2; 20 mg/kg SC, 14-day study, 240 h", "value": "60.06% and 118.48% and 58.34% and 98.90% and 86.42%"}, {"measurement": "RIPK2 degradation", "setting": "RIPK2; rat, 14-day study, all dose levels (1, 5, 20 mg/kg SC), 8 h", "value": "40–60%"}, {"measurement": "RIPK2 protein levels, in words", "setting": "RIPK2; rat, 14-day study, each dose group, 240 h", "value": "returned to baseline levels"}, {"measurement": "RIPK2 degradation", "setting": "RIPK2; rat, single 20 mg/kg SC, 72 h", "value": "> 80", "unit": "%"}, {"measurement": "RIPK2 degradation", "setting": "RIPK2; rat, single 20 mg/kg SC, 168 h", "value": "> 80", "unit": "%"}, {"measurement": "TNFa level after ex vivo L18-MDP stimulation vs pre-dose, individual rat", "setting": "[2]; 8 h", "value": "9.24% and 8.84% and 7.78% and 9.53% and 3.34%"}, {"measurement": "TNFa level after ex vivo L18-MDP stimulation vs pre-dose, individual rat", "setting": "[2]; 24 h", "value": "3.87% and 3.74% and 8.65% and 6.37% and 4.55%"}, {"measurement": "TNFa level after ex vivo L18-MDP stimulation vs pre-dose, individual rat", "setting": "[2]; 72 h", "value": "10.34% and 56.63% and 10.25% and 43.76% and 3.57%"}, {"measurement": "TNFa level after ex vivo L18-MDP stimulation vs pre-dose, individual rat", "setting": "[2]; 168 h", "value": "12.29% and 8.70% and 24.16% and 13.36% and 15.12%"}, {"measurement": "TNFα inhibition following ex vivo L18-MDP stimulation in rat blood", "setting": "[2]; single 20 mg/kg SC, throughout the 7-day study", "value": "> 70", "unit": "%"}]}
